Laboratory results reported in PubChem BioAssay (NCI).
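Five compound concentrations were applied to cells in 96-well plates for 48 hours; endpoints were derived by simple linear interpolation of the resulting dose-response curve. Here, GI50 denotes the concentration required for 50% inhibition of growth. Definition used: TGI = concentration required for complete inhibition of growth.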

Tests used:
Assay in all cases: growth of human tumour cells (NCI), 48 h
[1] = tested on: SK-OV-3 ovarian
[2] = tested on: NCI-H226 lung
[3] = tested on: SN12C renal
[4] = tested on: HS 578T breast
[5] = tested on: OVCAR-8 ovarian
[6] = tested on: 786-0 renal
[7] = tested on: SK-MEL-2 melanoma
[8] = tested on: PC-3 prostate
[9] = tested on: BT-549 breast
[10] = tested on: SNB-19 CNS

In the case of `COC(=O)Nc1nc2ccc(S(=O)(=O)c3ccc(NC(=O)Nc4cc(C(F)(F)F)ccc4F)cc3)cc2[nH]1`, the GI50 [1] was > 25 µM, the TGI [1] was > 25 µM and the GI50 [2] was > 25 µM. For the same compound, the TGI [2] was > 25 µM, the GI50 [3] was > 25 µM and the TGI [3] was > 25 µM. For the same compound, the GI50 [4] was > 25 µM, the TGI [4] was > 25 µM and the GI50 [5] was > 25 µM. For the same compound, the TGI [5] was > 25 µM, the GI50 [6] was > 25 µM and the TGI [6] was > 25 µM. The GI50 [7] was > 25 µM, the TGI [7] was > 25 µM and the GI50 [8] was > 25 µM. For the same compound, the TGI [8] was > 25 µM, the GI50 [9] was > 25 µM and the TGI [9] was > 25 µM. The GI50 [10] was > 25 µM and the TGI [10] was > 25 µM.

`CC(=O)O[C@H]1CC[C@@]2(C)C(=C/C(=N\[N+](=O)[O-])[C@H]3C4CCC([C@H](C)CCCC(C)C)[C@@]4(C)CCC32)C1` (stereo not given in full) was tested, and the TGI [1] was > 100 µM, the TGI [2] was > 100 µM and the TGI [3] was > 100 µM. For the same compound, the TGI [5] was > 100 µM, the TGI [6] was > 100 µM and the TGI [7] was > 100 µM. For the same compound, the TGI [10] was > 100 µM.

In the case of `COC(=O)C1C(/C=C/c2ccoc2)ON2CCC[C@@H]12` (stereo not given in full), the TGI [2] was > 100 µM, the TGI [3] was > 100 µM and the TGI [5] was > 100 µM. The TGI [6] was > 100 µM, the TGI [7] was > 100 µM and the TGI [10] was > 100 µM.

`CCCCN(CCCC)CCC(O)c1cc2ccc(C(F)(F)F)cc2c2cc(C(F)(F)F)ccc12` (stereo not given) was tested, and the GI50 [1] was 3.98 µM, the TGI [1] was 15.3 µM and the GI50 [2] was 2.88 µM. For the same compound, the TGI [2] was 10.5 µM, the GI50 [3] was 3.84 µM and the TGI [3] was 14.6 µM. For the same compound, the GI50 [4] was 1.55 µM, the TGI [4] was 4.62 µM and the GI50 [5] was 1.92 µM. The TGI [5] was 4.25 µM, the GI50 [6] was 1.55 µM and the TGI [6] was 3.2 µM. The GI50 [7] was 2.53 µM, the TGI [7] was 4.51 µM and the GI50 [8] was 2.52 µM. For the same compound, the TGI [8] was 9.67 µM, the GI50 [10] was 3.92 µM and the TGI [10] was 15.3 µM.

In the case of `NC(=O)N/N=C(\CCC(=O)N(Cc1ccccc1)Cc1ccccc1)CC(=O)c1ccc(F)cc1`, the TGI [1] was > 100 µM, the TGI [2] was > 100 µM and the TGI [3] was > 100 µM. For the same compound, the TGI [5] was > 100 µM, the TGI [6] was 87.4 µM and the TGI [7] was > 100 µM. The TGI [10] was > 100 µM.

`CC(=O)O/N=C/c1cc2c(cc1Br)OCO2` was tested, and the TGI [1] was > 349 µM, the TGI [3] was > 349 µM and the TGI [5] was > 349 µM. The TGI [6] was > 349 µM and the TGI [7] was > 349 µM.

With `Cc1cc(Cl)ccc1NC(=O)C(=O)Cc1occc(=O)c1O` the TGI [1] was > 100 µM, the TGI [2] was > 100 µM and the TGI [3] was > 100 µM. The TGI [5] was > 100 µM, the TGI [6] was > 100 µM and the TGI [7] was > 100 µM. The TGI [10] was > 100 µM.

`Nc1ccc(C2=Nc3ccccc3SC(c3ccccc3O)C2)cc1` (stereo not given) was tested, and the TGI [1] was > 100 µM, the TGI [2] was > 100 µM and the TGI [3] was > 100 µM. The TGI [5] was > 100 µM, the TGI [6] was 73.6 µM and the TGI [7] was > 100 µM. The TGI [10] was > 100 µM.

With `Cc1ccc(Nc2nc(C)c(C(/C=C/c3ccc4c(c3)OCO4)=N/Nc3ccc([N+](=O)[O-])cc3[N+](=O)[O-])s2)c([N+](=O)[O-])c1` the TGI [1] was > 100 µM, the TGI [2] was 90.1 µM and the TGI [3] was > 100 µM. The TGI [5] was > 100 µM, the TGI [6] was > 100 µM and the TGI [7] was > 100 µM. For the same compound, the TGI [10] was > 100 µM.

For `COc1cc2c(cc1OCCCCCn1c3ccccc3c3ccccc31)N=C[C@@H]1CCCN1C2=O`, the GI50 [1] was 4.57 µM, the TGI [1] was 16.8 µM and the GI50 [2] was 2.49 µM. For the same compound, the TGI [2] was 8.48 µM, the GI50 [3] was 1.94 µM and the TGI [3] was 4.16 µM. The GI50 [5] was 2.56 µM, the TGI [5] was 7.17 µM and the GI50 [6] was 1.73 µM. The TGI [6] was 3.2 µM, the GI50 [7] was 1.67 µM and the TGI [7] was 3.24 µM. It also gave a GI50 [8] of 2.36 µM, a TGI [8] of 7.73 µM and a GI50 [9] of 2.03 µM. It also gave a TGI [9] of 4.31 µM, a GI50 [10] of 2.05 µM and a TGI [10] of 4.04 µM.

In the case of `O=C1/C(=C\c2ccccc2)c2ccccc2N1/N=C\c1ccccc1`, the TGI [1] was > 100 µM, the TGI [2] was > 100 µM and the TGI [3] was > 100 µM. The TGI [5] was > 100 µM, the TGI [6] was > 100 µM and the TGI [7] was > 100 µM. The TGI [10] was > 100 µM.

For `CCOC(=O)C1Oc2ccc([N+](=O)[O-])cc2C1(C)O` (stereo not given), the TGI [1] was > 100 µM, the TGI [2] was > 100 µM and the TGI [3] was > 100 µM. The TGI [5] was > 100 µM, the TGI [6] was > 100 µM and the TGI [7] was > 100 µM. The TGI [10] was > 100 µM.

With `O=CN1N=C(c2ccc(Nc3ccnc4cc(Cl)ccc34)cc2)CC1c1ccc(Cl)cc1` (stereo not given) the GI50 [2] was 4.66 µM, the TGI [2] was > 100 µM and the GI50 [3] was 0.978 µM. The TGI [3] was > 100 µM, the GI50 [4] was 3.93 µM and the TGI [4] was > 100 µM. For the same compound, the GI50 [5] was 3.22 µM, the TGI [5] was > 100 µM and the GI50 [6] was 0.908 µM. For the same compound, the TGI [6] was > 100 µM, the GI50 [7] was 7.86 µM and the TGI [7] was > 100 µM. The GI50 [8] was 0.475 µM, the TGI [8] was > 100 µM and the GI50 [9] was 4.77 µM. For the same compound, the TGI [9] was > 100 µM, the GI50 [10] was 1.92 µM and the TGI [10] was > 100 µM.

`COc1ccc(/C(C#N)=C(/N)SCc2ccccc2Cl)cc1` was tested, and the TGI [1] was 86.9 µM, the TGI [2] was 33.3 µM and the TGI [3] was 91.3 µM. The TGI [5] was > 10 µM, the TGI [6] was 32.7 µM and the TGI [7] was 32.6 µM. The TGI [10] was > 10 µM.

With `CNC(=O)c1cncc(/C=C/c2c(Cl)cccc2Cl)c1` the GI50 [1] was > 25 µM, the TGI [1] was > 25 µM and the GI50 [2] was > 24.1 µM. The TGI [2] was > 25 µM, the GI50 [3] was > 21 µM and the TGI [3] was > 25 µM. For the same compound, the GI50 [4] was 7.17 µM, the TGI [4] was > 21.6 µM and the GI50 [5] was > 25 µM. The TGI [5] was > 25 µM, the GI50 [6] was > 25 µM and the TGI [6] was > 25 µM. For the same compound, the GI50 [8] was > 21.6 µM, the TGI [8] was > 25 µM and the GI50 [9] was > 25 µM. The TGI [9] was > 25 µM, the GI50 [10] was > 22.4 µM and the TGI [10] was > 25 µM.

In the case of `CCc1c2c(nc3ccc(OCc4ccc(B5OC(C)(C)C(C)(C)O5)cc4)cc13)-c1cc3c(c(=O)n1C2)COC(=O)[C@]3(O)CC`, the GI50 [2] was 0.0214 µM, the TGI [2] was 0.454 µM and the GI50 [3] was < 0.01 µM. The TGI [3] was > 100 µM, the GI50 [4] was 1.11 µM and the TGI [4] was > 100 µM. The GI50 [5] was 0.0296 µM, the TGI [5] was > 100 µM and the GI50 [6] was 0.02 µM. The TGI [6] was 0.0691 µM, the GI50 [7] was 0.825 µM and the TGI [7] was > 24.6 µM. For the same compound, the GI50 [8] was 0.146 µM, the TGI [8] was > 100 µM and the GI50 [9] was 0.0757 µM. The TGI [9] was > 100 µM, the GI50 [10] was < 0.01 µM and the TGI [10] was > 100 µM.

`Cc1ccc([N+](=O)[O-])c2c(NCCC[N+](C)(C)[O-])ccnc12` was tested, and the TGI [1] was > 100 µM, the TGI [2] was > 100 µM and the TGI [3] was > 100 µM. The TGI [4] was > 100 µM, the TGI [5] was > 100 µM and the TGI [6] was > 100 µM. The TGI [7] was > 100 µM, the TGI [8] was > 100 µM and the TGI [10] was > 100 µM.

For `O=c1[nH]c2c(c3ccccc13)CCc1ccccc1-2`, the TGI [1] was > 100 µM, the TGI [2] was > 100 µM and the TGI [3] was > 100 µM. For the same compound, the TGI [5] was > 100 µM, the TGI [6] was > 100 µM and the TGI [7] was > 100 µM. For the same compound, the TGI [10] was > 100 µM.

For `CC1(C)N=C(Oc2ccccc2)n2nccc2N1`, the TGI [1] was > 100 µM, the TGI [2] was > 100 µM and the TGI [3] was > 100 µM. The TGI [6] was > 100 µM, the TGI [7] was > 100 µM and the TGI [10] was > 100 µM.

`N#CC(C(=O)CCC(=O)Nc1ccc(Cl)c(Cl)c1)c1ccc(Cl)cc1` (stereo not given) was tested, and the TGI [2] was > 100 µM, the TGI [3] was > 100 µM and the TGI [5] was > 100 µM. The TGI [6] was > 100 µM, the TGI [7] was > 100 µM and the TGI [10] was > 100 µM.
